# Measurements from ChEMBL document CHEMBL1795249, “Triazole-linked reduced amide isosteres: an approach for the fragment-based drug discovery of anti-Alzheimer's BACE1 inhibitors” (Bioorg Med Chem Lett, 2011).
# pIC50: −log10 of the molar value.
# Target: Beta-secretase 1 (Homo sapiens, UniProt P56817)
# Test: Inhibition of BACE1 by cell-free FRET assay
# Beta-secretase 1, sequence (P56817 whole entry): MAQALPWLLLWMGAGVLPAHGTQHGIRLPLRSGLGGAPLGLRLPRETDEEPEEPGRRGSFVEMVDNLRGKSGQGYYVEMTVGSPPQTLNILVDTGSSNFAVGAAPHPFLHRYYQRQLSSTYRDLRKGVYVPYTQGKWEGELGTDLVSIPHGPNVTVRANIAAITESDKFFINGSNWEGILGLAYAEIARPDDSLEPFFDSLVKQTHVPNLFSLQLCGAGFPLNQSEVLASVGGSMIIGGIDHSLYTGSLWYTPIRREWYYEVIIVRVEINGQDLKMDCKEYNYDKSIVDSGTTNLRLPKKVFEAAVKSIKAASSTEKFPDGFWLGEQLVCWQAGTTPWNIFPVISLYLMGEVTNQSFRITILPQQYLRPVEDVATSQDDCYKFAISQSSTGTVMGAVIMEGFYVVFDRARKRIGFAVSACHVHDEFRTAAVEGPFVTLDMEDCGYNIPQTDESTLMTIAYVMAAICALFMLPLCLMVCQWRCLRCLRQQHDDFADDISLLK
row,pIC50,SMILES
1,5.15,COc1cccc(CNC[C@H](Cc2ccccc2)n2cc(-c3cc(C(=O)N[C@H](C)c4ccccc4)cc(N(C)S(C)(=O)=O)c3)nn2)c1
2,5.70,C[C@@H](NC(=O)c1cc(-c2cn([C@H](CNCc3cccc(Br)c3)Cc3ccccc3)nn2)cc(N(C)S(C)(=O)=O)c1)c1ccccc1
3,5.47,C#Cc1cccc(NC2CC(O)C(Nc3cccc(-c4cn([C@H](CNCc5cccc(Br)c5)Cc5ccccc5)nn4)c3)CC2O)c1 (mixture of isomers)
4,5.62,C#Cc1cccc(NC2CC(Nc3cccc(-c4cn([C@H](CNCc5cccc(Br)c5)Cc5ccccc5)nn4)c3)C(O)CC2O)c1 (mixture of isomers)
